From ChEMBL document CHEMBL5058646 (2022)

Tests used:
[1] = target: Cyclin-G-associated kinase (Homo sapiens) (UniProt O14976); test: GAK SGC Tm panel (DSF); conditions: Compound concentration 20.0 uM
[2] = target: 5-hydroxytryptamine receptor 3A (Homo sapiens) (UniProt P46098); conditions: Compound concentration 10.0 uM
[3] = target: Serine/threonine-protein kinase 26 (Homo sapiens) (UniProt Q9P289); test: MST4 SGC Tm panel (DSF); conditions: Compound concentration 20.0 uM
[4] = target: Serine/threonine-protein kinase 38-like (Homo sapiens) (UniProt Q9Y2H1); test: STK38L SGC Tm panel (DSF); conditions: Compound concentration 20.0 uM
[5] = target: T1, 5-hydroxytryptamine receptor 1D (Homo sapiens, UniProt P28221); test: GPCRScan assay: inhibition of 5-HT1D; design: radioligand conc. used [nm] 1.0 – 2.0, parental cells HEKT
T1 sequence (P28221 whole entry): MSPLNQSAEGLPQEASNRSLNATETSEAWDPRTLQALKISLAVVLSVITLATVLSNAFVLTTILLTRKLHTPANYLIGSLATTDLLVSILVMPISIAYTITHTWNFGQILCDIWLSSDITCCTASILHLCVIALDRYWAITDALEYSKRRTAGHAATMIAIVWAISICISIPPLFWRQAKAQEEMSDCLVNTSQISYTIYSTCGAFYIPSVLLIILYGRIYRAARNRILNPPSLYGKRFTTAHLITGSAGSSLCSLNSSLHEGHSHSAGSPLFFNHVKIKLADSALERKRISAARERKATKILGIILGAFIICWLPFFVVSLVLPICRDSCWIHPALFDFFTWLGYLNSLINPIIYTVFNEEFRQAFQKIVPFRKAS

[6] = target: Muscarinic acetylcholine receptor M4 (Homo sapiens) (UniProt P08173); conditions: Compound concentration 10.0 uM
[7] = target: Ephrin type-A receptor 2 (Homo sapiens) (UniProt P29317); test: EPHA2 SGC Tm panel (DSF); conditions: Compound concentration 20.0 uM
[8] = target: Tyrosine-protein kinase Fes/Fps (Homo sapiens) (UniProt P07332); test: FES SGC Tm panel (DSF); conditions: Compound concentration 20.0 uM
[9] = target: Ephrin type-A receptor 4 (Homo sapiens) (UniProt P54764); test: EPHA4 SGC Tm panel (DSF); conditions: Compound concentration 20.0 uM
[10] = target: T1, 5-hydroxytryptamine receptor 1D; conditions: Compound concentration 10.0 uM
[11] = target: Vascular endothelial growth factor receptor 1 (Homo sapiens) (UniProt P17948); test: FLT1 SGC Tm panel (DSF); conditions: Compound concentration 20.0 uM
[12] = target: Histamine H3 receptor (Homo sapiens, UniProt Q9Y5N1); conditions: Compound concentration 10.0 uM
[13] = target: Fibroblast growth factor receptor 2 (Homo sapiens) (UniProt P21802); test: FGFR2 SGC Tm panel (DSF); conditions: Compound concentration 20.0 uM
Chain of Fibroblast growth factor receptor 2 (Homo sapiens) (P21802 22-821 limits assumed): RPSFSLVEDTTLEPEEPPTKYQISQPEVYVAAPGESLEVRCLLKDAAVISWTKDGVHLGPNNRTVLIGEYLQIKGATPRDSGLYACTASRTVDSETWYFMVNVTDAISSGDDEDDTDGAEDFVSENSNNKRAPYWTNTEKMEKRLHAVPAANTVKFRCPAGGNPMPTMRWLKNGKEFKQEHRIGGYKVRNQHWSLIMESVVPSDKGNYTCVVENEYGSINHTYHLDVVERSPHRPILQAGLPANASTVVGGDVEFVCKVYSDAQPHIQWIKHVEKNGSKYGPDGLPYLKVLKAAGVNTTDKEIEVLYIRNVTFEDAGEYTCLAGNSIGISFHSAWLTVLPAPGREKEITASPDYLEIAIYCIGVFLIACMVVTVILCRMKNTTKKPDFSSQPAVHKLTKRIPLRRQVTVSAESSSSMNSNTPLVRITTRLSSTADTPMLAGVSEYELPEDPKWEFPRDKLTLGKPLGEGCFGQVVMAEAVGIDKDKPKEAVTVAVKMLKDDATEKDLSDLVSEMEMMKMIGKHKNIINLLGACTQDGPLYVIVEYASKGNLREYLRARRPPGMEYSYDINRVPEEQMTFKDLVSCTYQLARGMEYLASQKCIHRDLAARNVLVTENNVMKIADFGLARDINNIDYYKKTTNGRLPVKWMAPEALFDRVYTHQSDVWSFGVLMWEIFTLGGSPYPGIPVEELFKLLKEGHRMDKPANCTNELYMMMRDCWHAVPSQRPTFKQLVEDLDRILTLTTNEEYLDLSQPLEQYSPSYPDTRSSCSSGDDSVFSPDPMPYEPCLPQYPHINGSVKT

[14] = target: SRSF protein kinase 1 (Homo sapiens) (UniProt Q96SB4); test: SRPK1 SGC Tm panel (DSF); conditions: Compound concentration 20.0 uM
Chain of SRSF protein kinase 1 (Homo sapiens) (Q96SB4 whole entry, the tested form may be a part): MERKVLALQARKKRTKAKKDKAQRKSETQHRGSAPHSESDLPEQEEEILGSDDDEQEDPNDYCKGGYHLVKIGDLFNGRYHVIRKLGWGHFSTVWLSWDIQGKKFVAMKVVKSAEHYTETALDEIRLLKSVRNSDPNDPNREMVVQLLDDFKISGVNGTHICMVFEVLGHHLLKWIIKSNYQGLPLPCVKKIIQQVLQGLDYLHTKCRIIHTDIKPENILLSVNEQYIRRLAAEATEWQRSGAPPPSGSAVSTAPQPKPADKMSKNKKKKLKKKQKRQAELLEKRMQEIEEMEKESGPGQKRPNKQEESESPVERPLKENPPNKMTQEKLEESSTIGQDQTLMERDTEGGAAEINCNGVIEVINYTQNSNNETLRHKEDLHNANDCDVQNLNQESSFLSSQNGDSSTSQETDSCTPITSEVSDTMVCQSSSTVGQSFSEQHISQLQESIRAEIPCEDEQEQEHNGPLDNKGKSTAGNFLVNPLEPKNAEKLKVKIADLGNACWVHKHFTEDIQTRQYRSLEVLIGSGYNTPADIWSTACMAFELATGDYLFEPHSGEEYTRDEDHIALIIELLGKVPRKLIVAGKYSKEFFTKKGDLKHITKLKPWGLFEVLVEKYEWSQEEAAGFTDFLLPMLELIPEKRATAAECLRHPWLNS

[15] = target: T2, Zinc finger and BTB domain-containing protein 24 (Homo sapiens) (UniProt O43167); conditions: SUD4, Compound concentration 1.0 uM
T2 sequence (whole entry): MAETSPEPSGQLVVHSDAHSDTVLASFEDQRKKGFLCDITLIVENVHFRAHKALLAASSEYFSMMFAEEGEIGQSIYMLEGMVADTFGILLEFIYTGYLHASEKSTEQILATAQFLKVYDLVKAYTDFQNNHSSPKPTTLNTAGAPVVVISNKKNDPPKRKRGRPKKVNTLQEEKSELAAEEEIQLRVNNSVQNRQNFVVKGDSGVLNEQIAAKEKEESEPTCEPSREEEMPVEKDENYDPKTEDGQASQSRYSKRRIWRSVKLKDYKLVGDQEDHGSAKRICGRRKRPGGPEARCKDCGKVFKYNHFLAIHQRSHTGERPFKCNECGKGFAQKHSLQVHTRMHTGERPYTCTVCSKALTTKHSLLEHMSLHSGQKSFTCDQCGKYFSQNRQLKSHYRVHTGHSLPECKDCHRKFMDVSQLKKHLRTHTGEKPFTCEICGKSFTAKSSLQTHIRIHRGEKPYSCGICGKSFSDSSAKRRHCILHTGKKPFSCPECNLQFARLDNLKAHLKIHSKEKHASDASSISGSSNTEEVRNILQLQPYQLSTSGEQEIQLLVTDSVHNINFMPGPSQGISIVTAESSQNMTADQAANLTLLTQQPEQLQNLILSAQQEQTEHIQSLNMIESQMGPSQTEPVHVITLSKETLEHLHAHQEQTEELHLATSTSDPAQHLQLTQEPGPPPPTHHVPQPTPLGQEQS

[16] = target: Peripheral plasma membrane protein CASK (Homo sapiens) (UniProt O14936); test: CASK SGC Tm panel (DSF); conditions: Compound concentration 20.0 uM
Chain of Peripheral plasma membrane protein CASK (Homo sapiens) (O14936 whole entry, the tested form may be a part): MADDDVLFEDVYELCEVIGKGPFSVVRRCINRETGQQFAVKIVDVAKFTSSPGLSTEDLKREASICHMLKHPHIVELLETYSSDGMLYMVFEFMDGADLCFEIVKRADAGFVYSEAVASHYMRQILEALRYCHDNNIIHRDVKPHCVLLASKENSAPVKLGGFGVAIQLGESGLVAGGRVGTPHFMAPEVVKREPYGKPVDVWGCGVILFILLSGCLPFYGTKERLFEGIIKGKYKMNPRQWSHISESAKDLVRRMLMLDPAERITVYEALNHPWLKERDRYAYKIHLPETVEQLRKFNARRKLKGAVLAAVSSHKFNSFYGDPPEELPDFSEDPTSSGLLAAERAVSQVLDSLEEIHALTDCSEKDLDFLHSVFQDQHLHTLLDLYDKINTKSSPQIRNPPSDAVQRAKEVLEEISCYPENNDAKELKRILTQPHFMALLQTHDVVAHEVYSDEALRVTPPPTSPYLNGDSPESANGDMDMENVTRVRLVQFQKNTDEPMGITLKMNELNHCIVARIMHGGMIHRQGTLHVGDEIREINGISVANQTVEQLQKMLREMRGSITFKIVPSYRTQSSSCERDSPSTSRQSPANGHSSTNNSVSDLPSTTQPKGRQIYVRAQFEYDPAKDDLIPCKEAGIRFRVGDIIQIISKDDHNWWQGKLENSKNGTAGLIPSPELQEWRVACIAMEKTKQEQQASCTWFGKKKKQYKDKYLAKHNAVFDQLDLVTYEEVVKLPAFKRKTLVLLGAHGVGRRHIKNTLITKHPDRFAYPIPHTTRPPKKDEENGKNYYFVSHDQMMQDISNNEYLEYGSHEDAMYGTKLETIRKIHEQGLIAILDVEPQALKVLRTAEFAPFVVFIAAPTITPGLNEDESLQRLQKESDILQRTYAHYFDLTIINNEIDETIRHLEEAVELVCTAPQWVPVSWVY

[17] = target: T3, Zinc finger and BTB domain-containing protein 10 (Homo sapiens) (UniProt Q96DT7); conditions: SUD4, Compound concentration 1.0 uM
T3 sequence (whole entry): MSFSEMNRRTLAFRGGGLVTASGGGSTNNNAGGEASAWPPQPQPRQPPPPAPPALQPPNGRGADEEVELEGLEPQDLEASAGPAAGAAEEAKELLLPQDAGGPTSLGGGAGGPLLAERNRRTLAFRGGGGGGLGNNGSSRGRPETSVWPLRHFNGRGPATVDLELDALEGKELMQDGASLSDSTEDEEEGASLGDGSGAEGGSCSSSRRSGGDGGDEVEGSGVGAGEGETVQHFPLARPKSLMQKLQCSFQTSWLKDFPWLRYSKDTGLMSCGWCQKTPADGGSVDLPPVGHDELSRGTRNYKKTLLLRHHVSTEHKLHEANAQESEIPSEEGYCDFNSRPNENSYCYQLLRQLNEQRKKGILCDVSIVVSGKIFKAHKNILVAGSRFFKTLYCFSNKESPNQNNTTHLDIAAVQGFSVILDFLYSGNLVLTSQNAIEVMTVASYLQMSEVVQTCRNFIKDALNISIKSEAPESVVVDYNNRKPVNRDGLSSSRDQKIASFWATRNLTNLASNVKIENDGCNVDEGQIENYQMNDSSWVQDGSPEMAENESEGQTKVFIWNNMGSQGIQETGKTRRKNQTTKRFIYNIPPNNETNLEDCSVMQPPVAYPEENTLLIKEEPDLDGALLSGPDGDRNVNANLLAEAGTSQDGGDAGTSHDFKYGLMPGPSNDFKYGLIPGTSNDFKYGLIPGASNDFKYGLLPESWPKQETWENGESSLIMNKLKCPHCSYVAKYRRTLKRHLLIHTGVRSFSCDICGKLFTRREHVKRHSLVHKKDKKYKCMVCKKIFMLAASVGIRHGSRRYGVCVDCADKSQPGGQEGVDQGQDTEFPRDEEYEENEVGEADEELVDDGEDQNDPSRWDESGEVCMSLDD

[18] = target: Aurora kinase B (Homo sapiens) (UniProt Q96GD4); test: AURKB SGC Tm panel (DSF); conditions: Compound concentration 20.0 uM
[19] = target: Zinc finger and BTB domain-containing protein 21 (Homo sapiens) (UniProt Q9ULJ3); conditions: SUD4, Compound concentration 1.0 uM
[20] = target: Dual specificity tyrosine-phosphorylation-regulated kinase 1A (Homo sapiens) (UniProt Q13627); test: DYRK1A SGC Tm panel (DSF); conditions: Compound concentration 20.0 uM
[21] = target: Death-associated protein kinase 3 (Homo sapiens) (UniProt O43293); test: DAPK3 SGC Tm panel (DSF); conditions: Compound concentration 20.0 uM
[22] = target: 5-hydroxytryptamine receptor 2B (Homo sapiens) (UniProt P41595); conditions: Compound concentration 10.0 uM
Chain of 5-hydroxytryptamine receptor 2B (Homo sapiens) (P41595 whole entry): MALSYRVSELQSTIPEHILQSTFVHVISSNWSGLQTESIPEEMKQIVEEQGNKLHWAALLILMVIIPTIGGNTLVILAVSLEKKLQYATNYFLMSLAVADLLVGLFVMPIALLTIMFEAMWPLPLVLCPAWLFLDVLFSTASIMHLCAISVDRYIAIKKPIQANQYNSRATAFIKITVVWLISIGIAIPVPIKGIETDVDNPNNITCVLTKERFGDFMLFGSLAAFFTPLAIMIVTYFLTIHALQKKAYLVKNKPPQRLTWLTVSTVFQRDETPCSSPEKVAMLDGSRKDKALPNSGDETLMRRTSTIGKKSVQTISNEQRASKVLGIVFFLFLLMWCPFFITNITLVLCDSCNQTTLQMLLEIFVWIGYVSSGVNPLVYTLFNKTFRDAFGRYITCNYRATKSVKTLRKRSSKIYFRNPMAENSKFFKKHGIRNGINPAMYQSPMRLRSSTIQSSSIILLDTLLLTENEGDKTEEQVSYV

[23] = target: Serine/threonine-protein kinase ULK1 (Homo sapiens) (UniProt O75385); test: ULK1 SGC Tm panel (DSF); conditions: Compound concentration 20.0 uM
Chain of Serine/threonine-protein kinase ULK1 (Homo sapiens) (O75385 whole entry): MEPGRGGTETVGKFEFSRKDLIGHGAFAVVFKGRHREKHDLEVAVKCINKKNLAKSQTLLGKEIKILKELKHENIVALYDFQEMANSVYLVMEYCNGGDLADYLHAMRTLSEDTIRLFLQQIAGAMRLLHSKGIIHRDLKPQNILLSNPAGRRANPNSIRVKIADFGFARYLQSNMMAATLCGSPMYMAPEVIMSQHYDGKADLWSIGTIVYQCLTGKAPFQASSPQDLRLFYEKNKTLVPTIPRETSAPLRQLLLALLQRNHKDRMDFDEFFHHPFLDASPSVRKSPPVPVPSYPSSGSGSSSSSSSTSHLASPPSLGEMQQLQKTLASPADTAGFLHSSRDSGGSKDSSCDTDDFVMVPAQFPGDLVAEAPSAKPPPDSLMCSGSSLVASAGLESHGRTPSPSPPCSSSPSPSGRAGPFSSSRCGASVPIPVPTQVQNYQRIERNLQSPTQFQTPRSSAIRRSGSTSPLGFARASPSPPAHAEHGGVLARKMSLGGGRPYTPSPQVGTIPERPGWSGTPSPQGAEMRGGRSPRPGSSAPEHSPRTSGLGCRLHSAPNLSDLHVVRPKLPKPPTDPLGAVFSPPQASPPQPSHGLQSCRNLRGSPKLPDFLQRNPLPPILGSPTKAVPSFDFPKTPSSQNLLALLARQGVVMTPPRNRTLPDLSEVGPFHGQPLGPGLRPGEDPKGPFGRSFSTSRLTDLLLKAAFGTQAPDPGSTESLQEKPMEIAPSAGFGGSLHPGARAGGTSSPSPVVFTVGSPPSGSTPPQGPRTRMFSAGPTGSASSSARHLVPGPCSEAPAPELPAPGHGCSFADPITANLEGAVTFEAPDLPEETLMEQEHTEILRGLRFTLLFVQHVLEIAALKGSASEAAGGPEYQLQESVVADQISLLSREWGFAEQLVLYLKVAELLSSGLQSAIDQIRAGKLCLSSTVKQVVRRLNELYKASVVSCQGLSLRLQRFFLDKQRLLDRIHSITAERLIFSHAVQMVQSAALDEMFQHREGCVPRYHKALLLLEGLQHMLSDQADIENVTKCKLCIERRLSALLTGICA

[24] = target: Ephrin type-B receptor 1 (Homo sapiens) (UniProt P54762); test: EPHB1 SGC Tm panel (DSF); conditions: Compound concentration 20.0 uM
[25] = target: Serine/threonine-protein kinase pim-3 (Homo sapiens) (UniProt Q86V86); test: PIM3 SGC Tm panel (DSF); conditions: Compound concentration 20.0 uM

Chain of Serine/threonine-protein kinase 26 (Homo sapiens) (Q9P289 2-416 limits assumed): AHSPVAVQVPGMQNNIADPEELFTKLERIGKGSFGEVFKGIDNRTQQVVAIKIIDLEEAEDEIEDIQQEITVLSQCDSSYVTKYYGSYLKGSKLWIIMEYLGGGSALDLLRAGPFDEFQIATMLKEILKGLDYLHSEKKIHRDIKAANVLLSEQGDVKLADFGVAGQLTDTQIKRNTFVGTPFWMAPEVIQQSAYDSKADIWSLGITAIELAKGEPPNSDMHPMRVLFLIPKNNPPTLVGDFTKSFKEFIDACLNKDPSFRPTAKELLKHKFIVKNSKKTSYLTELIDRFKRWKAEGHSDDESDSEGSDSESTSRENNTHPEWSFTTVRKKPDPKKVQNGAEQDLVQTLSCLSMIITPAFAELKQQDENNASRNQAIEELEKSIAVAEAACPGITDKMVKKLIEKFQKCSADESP

For `C[C@@H]1CN(c2ncc(Cl)c(Nc3ccc4c(c3)n(CCC(C)(C)O)c(=O)n4C)n2)C[C@H](C)C1(F)F`, which Tm [1] is on record?
The Tm was 52 °C.

What about the inhibition [2] of the same compound?
Its inhibition is -5.81%.

And the Tm [3]?
The Tm was 44 °C.

What about the Tm [4] of the same compound?
The Tm was 47 °C.

What about the Ki [5] of the same compound?
The Ki was 6.17 µM.

What about the inhibition [6] of the same compound?
Its inhibition is -2.86%.

And the Tm [7]?
Its Tm is 46 °C.

And the Tm [8]?
The Tm was 44 °C.

What about the Tm [9] of the same compound?
Its Tm is 54 °C.

What about the inhibition [10] of the same compound?
Its inhibition is 56.5%.

And the Tm [11]?
The Tm was 45 °C.

What about the inhibition [12] of the same compound?
The inhibition was 60.7%.

What about the Tm [13] of the same compound?
The Tm was 50 °C.

And the Tm [14]?
The Tm was 45 °C.

And the LogFC [15]?
Its LogFC is 0.0258.

And the Tm [16]?
The Tm was 68 °C.

What about the LogFC [17] of the same compound?
Its LogFC is 0.0283.

And the Tm [18]?
Its Tm is 46 °C.

What about the LogFC [19] of the same compound?
The LogFC was 0.0103.

And the Tm [20]?
The Tm was 45 °C.

What about the Tm [21] of the same compound?
Its Tm is 39 °C.

What about the inhibition [22] of the same compound?
Its inhibition is 34.6%.

And the Tm [23]?
The Tm was 41 °C.

What about the Tm [24] of the same compound?
Its Tm is 57 °C.

What about the Tm [25] of the same compound?
The Tm was 40 °C.
